Measured values published in patent publication US8802597B2, “Herbicidal pyrimidines” (E I du Pont de Nemours and Company, priority 2003, dated 2014).
Read-outs that look alike come from different tables or passages of the source.

Experiments:
Type in all cases: in vivo
[1] = tested on: barnyardgrass (Echinochloa crus-galli); experiment: Test B pre/postemergence; conditions: Echinochloa crus-galli, post-emergence, Postemergence, scale 0 to 100 (0 no effect, 100 complete control), read-out: Barnyardgrass plant response rating
Procedure, shortened: (§1)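 Test chemicals in a non-phytotoxic solvent mixture with surfactant were applied preemergence to planted seeds and postemergence to plants 2 to 18 cm tall (1- to 4-leaf stage). After 13 to 15 days in a greenhouse, injury was visually rated against untreated controls on a 0 to 100 scale.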

[2] = tested on: lambsquarters (Chenopodium album); experiment: Test B pre/postemergence; conditions: Chenopodium album, post-emergence, Postemergence, scale 0 to 100 (0 no effect, 100 complete control), read-out: Lambsquarters plant response rating
Procedure, shortened: as §1

[3] = tested on: giant foxtail (Setaria faberii); experiment: Test B pre/postemergence; conditions: Setaria faberi; for pest or weed control at 125 g/ha: 125 g ai/ha; for pest or weed control at 62 g/ha: 62 g ai/ha
Procedure, shortened: as §1

[4] = tested on: corn (Zea mays); experiment: Test B pre/postemergence; conditions: Zea mays
Procedure, shortened: as §1

[5] = tested on: crabgrass (Digitaria sanguinalis); experiment: Test B pre/postemergence; conditions: Digitaria sanguinalis; for pest or weed control at 62 g/ha: 62 g ai/ha; for pest or weed control at 125 g/ha: 125 g ai/ha
Procedure, shortened: as §1

[6] = tested on: velvetleaf (Abutilon theophrasti); experiment: Test B pre/postemergence; conditions: Abutilon theophrasti; for pest or weed control at 62 g/ha: 62 g ai/ha; for pest or weed control at 125 g/ha: 125 g ai/ha
Procedure, shortened: as §1

[7] = tested on: pigweed (Amaranthus retroflexus); experiment: Test B pre/postemergence; conditions: Amaranthus retroflexus, post-emergence, Postemergence, scale 0 to 100 (0 no effect, 100 complete control), read-out: Pigweed plant response rating
Procedure, shortened: as §1

[8] = tested on: wheat (Triticum aestivum); experiment: Test B pre/postemergence; conditions: Triticum aestivum, scale 0 to 100 (0 no effect, 100 complete control); for plant injury at 62 g/ha: 62 g ai/ha; for plant injury at 125 g/ha: 125 g ai/ha
Procedure, shortened: as §1

[9] = tested on: morningglory (Ipomoea coccinea); experiment: Test B pre/postemergence; conditions: Ipomoea; for pest or weed control at 62 g/ha: 62 g ai/ha; for pest or weed control at 125 g/ha: 125 g ai/ha
Procedure, shortened: as §1

[10] = tested on: cocklebur (Xanthium strumarium); experiment: Test B pre/postemergence; conditions: Xanthium strumarium; for pest or weed control at 62 g/ha: 62 g ai/ha; for pest or weed control at 125 g/ha: 125 g ai/ha
Procedure, shortened: as §1

[11] = tested on: Surinam grass (Brachiaria decumbens); experiment: Test B pre/postemergence; conditions: Urochloa decumbens; for pest or weed control at 125 g/ha: 125 g ai/ha; for pest or weed control at 62 g/ha: 62 g ai/ha
Procedure, shortened: as §1

[12] = tested on: wild oat (Avena fatua); experiment: Test B postemergence; conditions: Avena fatua, post-emergence, scale 0 to 100 (0 no effect, 100 complete control), read-out: Oat, Wild plant response rating
Procedure, shortened: as §1

[13] = tested on: blackgrass (Alopecurus myosuroides); experiment: Test B postemergence; conditions: Alopecurus myosuroides, post-emergence, scale 0 to 100 (0 no effect, 100 complete control), read-out: Blackgrass plant response rating
Procedure, shortened: as §1

[14] = tested on: barnyardgrass (Echinochloa crus-galli); experiment: Test B flooded paddy test; conditions: Echinochloa crus-galli, Flood, scale 0 to 100, read-out: Plant response rating, Barnyardgrass
Procedure, shortened: (§2)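 Plants were grown to the 2-leaf stage before treatment, then kept in a greenhouse for 13 to 15 days. Injury was rated visually against untreated controls on a 0 to 100 scale, where 0 is no effect and 100 is complete control.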

[15] = tested on: rice (Oryza sativa); experiment: Test B flooded paddy test; conditions: Oryza sativa, Flood, scale 0 to 100, read-out: Plant response rating, Rice
Procedure, shortened: as §2

[16] = tested on: duck salad (Heteranthera limosa); experiment: Test B flooded paddy test; conditions: Heteranthera limosa, Flood, scale 0 to 100, read-out: Plant response rating, Ducksalad
Procedure, shortened: as §2

[17] = tested on: umbrella sedge (Cyperus difformis); experiment: Test B flooded paddy test; conditions: Cyperus difformis, Flood, scale 0 to 100, read-out: Plant response rating, Sedge, Umbrella
Procedure, shortened: as §2

[18] = post-emergence, Postemergence, scale 0 to 100 (0 no effect, 100 complete control), read-out: Foxtail, Giant plant response rating
[19] = post-emergence, Postemergence, scale 0 to 100 (0 no effect, 100 complete control), read-out: Crabgrass plant response rating
[20] = post-emergence, Postemergence, scale 0 to 100 (0 no effect, 100 complete control), read-out: Velvetleaf plant response rating
[21] = post-emergence, Postemergence, read-out: Wheat plant response rating
[22] = pre-emergence, Preemergence, read-out: Plant response rating, Wheat
[23] = post-emergence, Postemergence, scale 0 to 100 (0 no effect, 100 complete control), read-out: Morningglory plant response rating
[24] = post-emergence, Postemergence, scale 0 to 100 (0 no effect, 100 complete control), read-out: Cocklebur plant response rating
[25] = post-emergence, Postemergence, scale 0 to 100 (0 no effect, 100 complete control), read-out: Surinam Grass plant response rating

CCOC(=O)c1nc(-c2ccc(Br)cc2)nc(N)c1Cl [Compound 94, ethyl 6-amino-2-(4-bromophenyl)-5-chloro-4-pyrimidinecarboxylate]
pest or weed control at 62 g/ha ([1]; 62 g ai/ha): 80% | pest or weed control at 125 g/ha ([1]; 125 g ai/ha): 90% | pest or weed control at 62 g/ha ([2]; 62 g ai/ha): 90% | pest or weed control at 125 g/ha ([2]; 125 g ai/ha): 90% | pest or weed control at 125 g/ha [3, 18]: 60% | pest or weed control at 62 g/ha [3, 18]: 50% | pest or weed control at 125 g/ha ([3]; pre-emergence, Preemergence, scale 0 to 100 (0 no effect, 100 complete control), read-out: Plant response rating, Foxtail, Giant): 20% | pest or weed control at 62 g/ha ([3]; pre-emergence, Preemergence, scale 0 to 100, 0 no effect, 100 complete control, read-out: Plant response rating, Foxtail, Giant): 0% | plant injury at 62 g/ha ([4]; post-emergence, Postemergence, 62 g ai/ha, scale 0 to 100 (0 no effect, 100 complete control), read-out: Corn plant response rating): 70% | plant injury at 125 g/ha ([4]; post-emergence, Postemergence, 125 g ai/ha, scale 0 to 100 (0 no effect, 100 complete control), read-out: Corn plant response rating): 90% | Corn plant response rating (crop injury, 0 = no effect, 100 = complete kill) at 62 g/ha ([4]; pre-emergence, Preemergence, 62 g ai/ha, scale 0 to 100, 0 no effect, 100 complete control): 0% | Corn plant response rating (crop injury, 0 = no effect, 100 = complete kill) at 125 g/ha ([4]; pre-emergence, Preemergence, 125 g ai/ha, scale 0 to 100 (0 no effect, 100 complete control)): 0% | pest or weed control at 62 g/ha [5, 19]: 70% | pest or weed control at 125 g/ha [5, 19]: 80% | pest or weed control at 62 g/ha ([5]; pre-emergence, Preemergence, scale 0 to 100, 0 no effect, 100 complete control, read-out: Plant response rating, Crabgrass): 40% | pest or weed control at 125 g/ha ([5]; pre-emergence, Preemergence, scale 0 to 100 (0 no effect, 100 complete control), read-out: Plant response rating, Crabgrass): 70% | pest or weed control at 62 g/ha [6, 20]: 90% | pest or weed control at 125 g/ha [6, 20]: 100% | pest or weed control at 62 g/ha ([6]; pre-emergence, Preemergence, scale 0 to 100, 0 no effect, 100 complete control, read-out: Plant response rating, Velvetleaf): 40% | pest or weed control at 125 g/ha ([6]; pre-emergence, Preemergence, scale 0 to 100 (0 no effect, 100 complete control), read-out: Plant response rating, Velvetleaf): 70% | pest or weed control at 62 g/ha ([7]; 62 g ai/ha): 90% | pest or weed control at 125 g/ha ([7]; 125 g ai/ha): 90% | plant injury at 62 g/ha [8, 21]: 40% | plant injury at 125 g/ha [8, 21]: 60% | plant injury at 62 g/ha [8, 22]: 30% | plant injury at 125 g/ha [8, 22]: 60% | pest or weed control at 62 g/ha [9, 23]: 80% | pest or weed control at 125 g/ha [9, 23]: 90% | pest or weed control at 62 g/ha ([9]; pre-emergence, Preemergence, scale 0 to 100, 0 no effect, 100 complete control, read-out: Plant response rating, Morningglory): 0% | pest or weed control at 125 g/ha ([9]; pre-emergence, Preemergence, scale 0 to 100 (0 no effect, 100 complete control), read-out: Plant response rating, Morningglory): 0% | pest or weed control at 62 g/ha [10, 24]: 100% | pest or weed control at 125 g/ha [10, 24]: 100% | pest or weed control at 62 g/ha ([10]; pre-emergence, Preemergence, scale 0 to 100, 0 no effect, 100 complete control, read-out: Plant response rating, Cocklebur): 30% | pest or weed control at 125 g/ha ([10]; pre-emergence, Preemergence, scale 0 to 100 (0 no effect, 100 complete control), read-out: Plant response rating, Cocklebur): 50% | pest or weed control at 125 g/ha [11, 25]: 80% | pest or weed control at 62 g/ha [11, 25]: 80% | pest or weed control at 125 g/ha ([11]; pre-emergence, Preemergence, scale 0 to 100 (0 no effect, 100 complete control), read-out: Plant response rating, Surinam Grass): 30% | pest or weed control at 62 g/ha ([11]; pre-emergence, Preemergence, scale 0 to 100, 0 no effect, 100 complete control, read-out: Plant response rating, Surinam Grass): 10% | pest or weed control at 62 g/ha ([12]; 62 g ai/ha): 30% | pest or weed control at 125 g/ha ([12]; 125 g ai/ha): 30% | pest or weed control at 62 g/ha ([13]; 62 g ai/ha): 40% | pest or weed control at 125 g/ha ([13]; 125 g ai/ha): 60% | pest or weed control at 125 g/ha ([14]; 125 g ai/ha): 0% | pest or weed control at 500 g/ha ([14]; 500 g ai/ha): 0% | plant injury at 125 g/ha ([15]; 125 g ai/ha): 0% | plant injury at 500 g/ha ([15]; 500 g ai/ha): 0% | pest or weed control at 125 g/ha ([16]; 125 g ai/ha): 100% | pest or weed control at 500 g/ha ([16]; 500 g ai/ha): 100% | pest or weed control at 125 g/ha ([17]; 125 g ai/ha): 90% | pest or weed control at 500 g/ha ([17]; 500 g ai/ha): 90%
